This passage reports TGI results from PubChem BioAssay (NCI).

As a reminder, the TGI is the concentration giving total growth inhibition. A low value points to greater sensitivity of the cells.

Some test systems named below: A549 NSCLC; CAKI-1 renal; DU-145 prostate; IGROV1 ovarian; MCF7 breast; NCI-H226 lung; RXF 393 renal; SK-MEL-5 melanoma; HL-60(TB) leukemia; A498 renal.
Holding throughout (experiment): DTP human tumour cell line panel, 48 h

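Each compound was tested at five concentrations against cells in 96-well plates for 48 hours. TGI: total growth inhibition.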

For `Cc1cc(Cl)nc2nc(Cl)c(N)cc12`, the TGI is 37.2 µM in the assay on A549 NSCLC; 0.871 µM in the assay on CAKI-1 renal; 18 µM in the assay with DU-145 prostate; 22.9 µM in the assay with IGROV1 ovarian; above 22.2 µM with MCF7 breast; 51.7 µM in the assay on NCI-H226 lung. In addition, the TGI in the assay on RXF 393 renal is above 32 µM; in the assay on SK-MEL-5 melanoma, 24.6 µM.
Regarding `COc1ccc(OC)c(NCC(=O)Nn2cnc3ccc(S(=O)(=O)Nc4cc(OC)ccc4OC)cc3c2=O)c1`, the TGI in the assay with A549 NSCLC was above 100 µM; in the assay with CAKI-1 renal it was above 100 µM; in the assay on DU-145 prostate, above 100 µM; with HL-60(TB) leukemia, 43.1 µM; with IGROV1 ovarian it was above 100 µM; in the assay with MCF7 breast, above 100 µM. The same compound had a TGI in the assay on NCI-H226 lung above 100 µM.
On to `CCOP(=O)(OCC)/C(C#N)=C/c1cccn1C(C)C`, for which the TGI in the assay with A498 renal, with A549 NSCLC, in the assay with CAKI-1 renal, in the assay with DU-145 prostate, in the assay with IGROV1 ovarian and with NCI-H226 lung was above 100 µM throughout. The TGI with RXF 393 renal and in the assay on SK-MEL-5 melanoma was above 100 µM each time.
Regarding `Cc1c[n+]2c3ccccc3c3ccccc3c2s1`, the TGI was above 100 µM in the assay on A498 renal; above 100 µM with A549 NSCLC; 31.5 µM in the assay with CAKI-1 renal; above 61.6 µM with HL-60(TB) leukemia; above 100 µM with IGROV1 ovarian; 3.89 µM with NCI-H226 lung. The TGI with RXF 393 renal was 0.559 µM; with SK-MEL-5 melanoma, 17.9 µM.
For the compound `C=CCNC(=S)N1CC(C)C(=O)Nc2cc(Cl)ccc21` (stereo not drawn), the TGI in the assay with A498 renal, in the assay on A549 NSCLC, with CAKI-1 renal, in the assay on HL-60(TB) leukemia, in the assay with IGROV1 ovarian and with NCI-H226 lung was above 100 µM in each case. The TGI in the assay with RXF 393 renal and with SK-MEL-5 melanoma was above 100 µM each time.
Turning to `COc1cc(C2c3cc4c(cc3[C@@H](Nc3cccc(CO)c3)C3COC(=O)[C@H]23)OCO4)cc(OC)c1O` (stereo partly drawn), the TGI in the assay with A498 renal worked out at 1.77 µM; in the assay on A549 NSCLC it was 1.96 µM; with CAKI-1 renal, 1.91 µM; in the assay on HL-60(TB) leukemia, 0.343 µM; in the assay on IGROV1 ovarian it was 17 µM; with MCF7 breast, 26.3 µM. For the same compound, the TGI in the assay on NCI-H226 lung worked out at 1.7 µM; in the assay with RXF 393 renal it was 6.05 µM; in the assay with SK-MEL-5 melanoma, 2.28 µM.
For `O=P1(c2ccccc2)c2ccccc2-c2ccccc21`, the TGI in the assay with A549 NSCLC, with CAKI-1 renal, with DU-145 prostate, in the assay with HL-60(TB) leukemia, in the assay on IGROV1 ovarian and in the assay on MCF7 breast was above 100 µM each time. Moreover, the TGI in the assay on NCI-H226 lung, in the assay on RXF 393 renal and in the assay on SK-MEL-5 melanoma was above 100 µM throughout.
Consider `S=C(NCCc1ccccn1)N/N=C/c1ccccn1`, for which the TGI was 0.571 µM in the assay with A498 renal; 7.68 µM with A549 NSCLC; below 0.01 µM in the assay on CAKI-1 renal; above 100 µM in the assay with DU-145 prostate; below 0.01 µM with HL-60(TB) leukemia; 0.634 µM in the assay on IGROV1 ovarian. Also, the total growth inhibition concentration (TGI) turned out to be 0.986 µM with NCI-H226 lung, 12.2 µM in the assay on RXF 393 renal and 2.69 µM in the assay on SK-MEL-5 melanoma.
`CC(CC(N)C(=O)O)C(=O)O` (stereo not drawn): the TGI in the assay on A498 renal, with A549 NSCLC, in the assay on CAKI-1 renal, in the assay with DU-145 prostate, in the assay with HL-60(TB) leukemia and in the assay on IGROV1 ovarian was above 100 µM throughout. The TGI in the assay with NCI-H226 lung, in the assay with RXF 393 renal and with SK-MEL-5 melanoma was above 100 µM in each case.
Take `COc1ccc(C2=NN(c3ccccc3)C[N+](c3ccc(C)cc3)=N2)cc1`: the TGI in the assay with A498 renal was above 100 µM; in the assay with A549 NSCLC, above 100 µM; in the assay with HL-60(TB) leukemia, above 100 µM; in the assay on IGROV1 ovarian, above 100 µM; in the assay with NCI-H226 lung it was above 100 µM; in the assay with RXF 393 renal, 57.9 µM. In addition, the TGI in the assay on SK-MEL-5 melanoma is above 10 µM.
Turning to `O=c1[nH]nc(NCc2ccccc2)c2nnn(Cc3ccccc3)c12`, the TGI in the assay on A549 NSCLC, in the assay on CAKI-1 renal, in the assay on DU-145 prostate, in the assay on HL-60(TB) leukemia, in the assay on MCF7 breast and in the assay on SK-MEL-5 melanoma was above 100 µM in each case.
With `CCOC(=O)C(NC(=O)c1ccccc1)(Nc1ccc(S(=O)(=O)Nc2ncccn2)cc1)C(F)(F)F` (stereo not drawn), the TGI in the assay with A549 NSCLC, in the assay on CAKI-1 renal, in the assay with DU-145 prostate, in the assay on HL-60(TB) leukemia, with IGROV1 ovarian and in the assay on MCF7 breast was above 100 µM each time. In addition, the TGI with NCI-H226 lung, with RXF 393 renal and with SK-MEL-5 melanoma was above 100 µM throughout.
Regarding `COC1CCON1C(=O)c1ccccc1` (stereo not drawn), the TGI in the assay with A549 NSCLC, in the assay with CAKI-1 renal, in the assay on DU-145 prostate, in the assay on HL-60(TB) leukemia, with IGROV1 ovarian and with MCF7 breast was above 10 µM each time. Besides, the total growth inhibition concentration (TGI) with NCI-H226 lung, with RXF 393 renal and in the assay with SK-MEL-5 melanoma was above 10 µM each time.
Consider `Oc1ccc([C@H]2c3c(O)cc(O)cc3C3c4c(cc(O)cc4[C@@H]2[C@H]2c4cc(O)cc5c4C(c4cc(O)cc(O)c4[C@@H]2c2ccc(O)cc2)[C@@H](c2ccc(O)cc2)O5)O[C@@H]3c2ccc(O)cc2)cc1` (stereo partly drawn), for which the TGI in the assay with A549 NSCLC, with CAKI-1 renal, with DU-145 prostate, in the assay on HL-60(TB) leukemia, in the assay on IGROV1 ovarian and in the assay on MCF7 breast was above 100 µM each time. Moreover, the TGI in the assay with NCI-H226 lung was above 100 µM; in the assay with RXF 393 renal, 0.428 µM; in the assay on SK-MEL-5 melanoma, above 100 µM.
Consider `COC(=O)c1c(C(=O)OC)c2ccccn2c1-c1cc(OC)c(Br)c(=O)o1`, for which the TGI in the assay on A498 renal, with A549 NSCLC, in the assay on DU-145 prostate, in the assay on HL-60(TB) leukemia, in the assay on IGROV1 ovarian and in the assay on NCI-H226 lung was above 100 µM throughout. The TGI with RXF 393 renal and in the assay with SK-MEL-5 melanoma was above 100 µM throughout.
